Data on 9 compounds can be found in publication PMC6941823, “A dispensable paralog of succinate dehydrogenase subunit C mediates standing resistance towards a subclass of SDHI fungicides in Zymoseptoria tritici” (PLoS Pathogens, 2019).

For the experiment, the target named is C_A84I-SQR (SDHC_A84I), IPO323_Flu21 mitochondria (Zymoseptoria tritici, UniProt F9X9V6+F9XH52+O42772, A84I). In words: Succinate-quinone (SQR) SDHI sensitivity assay on purified mitochondria, IPO323_Flu21. In kind it is biochemical. To be noted: mitochondria of UV mutant IPO323_Flu21; mean of three ± SD. The method, then: Succinate-ubiquinone oxidoreductase (SQR) inhibition assays were performed on mitochondrial extracts from a panel of strains that were (i) either carrying a unique C-subunit encoding gene (ZtSDHC1, ZtSDHC1_A84I or Zt-SDHC3), or (ii) carrying two C-subunit encoding genes ZtSDHC1 and ZtSDHC3 (Table 1).
Biomass production, mitochondrial extraction and purification were performed as described in [14]. Succinate: ubiquinone/DCPIP sensitivity tests were performed as described in [14] with minor modification. The different mitochondrial suspensions were adjusted to similar initial velocity (1 OD595nm hour^-1) and inhibitor concentrations ranged between 0.047nM and 50μM with uniform 4x dilution steps (11 concentrations + DMSO control). Calculated absorbance slopes (OD/min) were used for IC50 calculations using GraphPad Prism 6.07 software non-linear curve fitting against log inhibitor concentrations.
Regarding `O=C(Nc1ccccc1-c1ccc(Cl)cc1)c1cccnc1Cl` [Boscalid], the IC50 turned out to be 62 ± 19.2 nM. `CC1=C(C(=O)Nc2ccccc2)SCCO1` [Carboxin] displayed an IC50 of 1150 ± 153 nM. As for `Cn1cc(C(=O)NCCc2ccc(Cl)cc2Cl)c(C(F)F)n1` [Compound 1], the figure is 2570 ± 239 nM; as for `C[C@@H](Cc1ccc(Cl)cc1Cl)NC(=O)c1cn(C)nc1C(F)F` [Compound 2], 780 ± 157 nM; as for `CON(C(=O)c1cn(C)nc1C(F)F)[C@@H](C)Cc1ccc(Cl)cc1Cl` [Compound 3], 28 ± 7.3 nM. As for `O=C(NCCc1ncc(C(F)(F)F)cc1Cl)c1ccccc1C(F)(F)F` [Fluopyram], the figure is 1440 ± 354 nM. As for `Cc1cc(OC(C)C)ccc1C(=O)C(C)(C)NC(=O)c1sccc1C` [Isofetamid], the figure is 21400 ± 4550 nM; as for `CC(C)CC(C)c1sccc1NC(=O)c1cn(C)nc1C(F)(F)F` (stereo not drawn) [Penthiopyrad], 4.6 ± 1.7 nM; as for `CON(C(=O)c1cn(C)nc1C(F)F)[C@@H](C)Cc1c(Cl)cc(Cl)cc1Cl` [Pydiflumetofen], 2 ± 0.4 nM.
